According to article PMC7795425, “Synthesis and Biological Activity of Brassinosteroid Analogues with a Nitrogen-Containing Side Chain” (International Journal of Molecular Sciences, 2020):
Entries after “also recorded” stand apart in the source; their conditions may differ. Counter-ions that a name gives are not always drawn.

Assays:
[1] = Calcein AM cytotoxicity assay, CEM; format: cell-based; conditions: human, CEM T-lymphoblastic leukemia cells, IC50 > 50 µM means inactive, read-out: Cytotoxic activity IC50
Method: (§1) The effect of the prepared BRs derivatives on the viability (in Calcein AM assays) of BJ human fibroblasts (as an example of a “normal” cell line) and human cancer cell lines of various histopathological origins, including: T-lymphoblastic leukemia CEM, breast carcinoma MCF7 and cervical carcinoma cell line HeLa, was also studied. Cells of all these lines were exposed to six 3-fold dilutions of each drug for 72 h prior to determination of cell survival. The IC50 (concentration leading to 50% inhibition of viability) values obtained from the Calcein AM cytotoxicity assay were calculated. […] All tested BR nitrogen-containing derivatives had no detectable activity, even when tested in concentrations of up to 50 µM.
(§2) The screening cell lines: T-lymphoblastic leukemia CEM; breast carcinoma MCF7 (estrogen-sensitive); cervical carcinoma cell line HeLa; and human foreskin fibroblasts BJ, were obtained from the American Type Culture Collection (Manassas, VA, USA). Cells were cultured in DMEM (Dulbecco’s Modified Eagle Medium, Sigma, St. Louis, MO, USA). Media used were supplemented with 10% fetal bovine serum, 2mM L-glutamine and 1% penicillin–streptomycin. The cell lines were maintained under standard cell culture conditions at 37 °C and 5% CO2 in a humid environment.
(§3) Cells were subcultured twice or three times a week using the standard trypsinization procedure. Cytotoxicity in cancer cell lines after 72 h was determined as described earlier. Control cultures were treated with DMSO alone, and the final concentration of DMSO in the mixture never exceeded 0.6%. Six serial 3-fold dilutions of the test substances were added at time zero in 20 μL aliquots to the microtiter plate wells and the highest final concentration in the wells was 50 μM.
(§4) Table S3: Cytotoxic activities, IC50 (µM/L)a, of compounds in three tumor and one normal fibroblast
(§5) Compound CEM MCF7 HeLa BJ
(§6) a The lowest concentration that kills 50% of cells.
(§7) b Increase of cell proliferation.

[2] = Calcein AM cytotoxicity assay, MCF7; format: cell-based; conditions: human, MCF7 breast carcinoma cells (estrogen-sensitive), MCF7, 72 h, IC50 > 50 µM means inactive, read-out: Cytotoxic activity IC50
Method: as §1, §2, §3, §4, §5, §6, §7

[3] = tested on: Arabidopsis thaliana L. (Columbia ecotype, Col-0) seedlings; experiment: Arabidopsis root sensitivity bioassay; format: in vivo; conditions: for root length, mean: 7-day-old seedlings; for elongation of roots (growth-promoting activity) compared to the control: low concentrations (0.1 and 1 nM)
Method: Several bioassays such as the first bean internode, root growth and rice lamina inclination have been developed to evaluate the growth-promoting activity of BR derivatives. In this work, the activity of new BR analogues was evaluated using the Arabidopsis root sensitivity test because of its simplicity and high sensitivity for BRs.. The characteristic effect of exogenously applied BRs on light-grown Arabidopsis is dose-dependent—BRs in higher concentrations cause inhibition of root growth; vice versa, low concentrations are stimulating. The results obtained for 24-epiBL, which was used as a positive control, and the BR derivatives are shown in Figure 2, Figure 3 and Figure S21. […] A similar trend was shown for dimethylammonium hydrochloride 22a and morpholinium hydrochloride 22e with a long side chain. For numerical values of the average, SD and p-value, see Table S2.
The biological activity of the new BRs derivatives was tested by an Arabidopsis sensitivity bioassay which was performed according to [28]. Briefly, seedlings of Arabidopsis thaliana L. (Columbia ecotype, Col-0) were stratified for 2 days at 4 °C and germinated on vertical half-strength Murashige and Skoog (1% w/v sucrose) agar at 22 °C in a 16 h/8 h light–dark cycle. The plates contained concentrations of 24-epiBL (as positive control) and BR derivatives ranging from 0.1 to 10 nM, respectively 100 nM (for selected derivatives only). After 7 days, roots were straightened on solid media plates and scanned with an Epson high-resolution scanner. The entire root length was measured with ImageJ (http://rsbweb.nih.gov/ij/). For each treatment, more than 15 seedlings were analyzed in two biological repeats, and p-values were calculated with the two-tailed Student t-test using Excel software.
(§8) Figure 2 Effect of selected brassinosteroid derivatives on the inhibition of Arabidopsis root length. Seven-day-old Arabidopsis thaliana seedlings (Columbia ecotype, Col-0) were treated with DMSO as control/24epiBL/BR short side chain derivatives; (A)—amides, (B)—amines, (C)—ammonium hydrochlorides. For each treatment, more than 15 seedlings were analyzed in two biological repeats. Error bars represent SD. Asterisks represent significant changes (t-test); * represents p-value < 0.05, in comparison to control.
as §8, with “Figure 3” for “Figure 2”, “control/24epiBL/BR long” for “control/24epiBL/BR short”, “(A)—amides, (B)—ammonium” for “(A)—amides, (B)—amines, (C)—ammonium”
Table S2: Data for figure 2, 3, and S21. P value <0.05(t-test), comparison to control.
control (mean ± SD) 16.3 ± 1.21
*only selected compounds were tested
mean(mm) SD t-test mean (mm) SD t-test mean (mm) SD t-test mean (mm) SD t-test
(1 picture or pasted object on this page, not shown here)

[4] = Calcein AM cytotoxicity assay, BJ; format: cell-based; conditions: human, BJ foreskin fibroblasts (normal cell line), IC50 > 50 µM means inactive, read-out: Cytotoxic activity IC50
Method: as §1, §2, §3, §4, §5, §6, §7

[5] = Calcein AM cytotoxicity assay, HeLa; format: cell-based; conditions: human, HeLa cervical carcinoma cells, IC50 > 50 µM means inactive, read-out: Cytotoxic activity IC50
Method: as §1, §2, §3, §4, §5, §6, §7

[6] = 100 nM (only selected compounds), control 14.61 ± 0.85

Row | Compound | melting point | IC50 at 72 h [1] [µM] | IC50 at 72 h [2] [µM] | root length, mean ([3]; 0.1 nM, control 16.3 ± 1.21) [mm] | root length, mean ([3]; 1 nM, control 16.3 ± 1.21) [mm] | root length, mean ([3]; 10 nM, control 16.3 ± 1.21) [mm] | root length, mean [3, 6] [mm] | elongation of roots (growth-promoting activity) compared to the control [3] | inhibitory effect on Arabidopsis root growth ([3]; tested 0.1 to 10 nM, selected derivatives also 100 nM) | IC50 at 72 h [4] [µM] | IC50 at 72 h [5] [µM] | concentration inhibiting Arabidopsis root growth ([3]; light-grown seedlings, positive control) [nM]
1 | C[C@H](CN(C)C)[C@H]1CCC2C3CC(=O)[C@H]4C[C@H](O)[C@H](O)C[C@]4(C)C3CC[C@@]21C (stereo partly drawn) (as salt: chloride) [16a, N,N-dimethyl-((20S)-2α,3α-dihydroxy-6-oxo-5α-pregnane-20-methyl)aminium chloride] | > 290 °C (dec.) | – | – | – | – | – | – | – | – | – | – | –
2 | CCN(CC)C[C@@H](C)[C@H]1CCC2C3CC(=O)[C@H]4C[C@H](O)[C@H](O)C[C@]4(C)C3CC[C@@]21C (stereo partly drawn) (as salt: chloride) [16b, N,N-diethyl-((20S)-2α,3α-dihydroxy-6-oxo-5α-pregnane-20-methyl)aminium chloride] | > 270 °C (dec.) | – | – | – | – | – | – | – | – | – | – | –
3 | C[C@H](CN1CCCC1)[C@H]1CCC2C3CC(=O)[C@H]4C[C@H](O)[C@H](O)C[C@]4(C)C3CC[C@@]21C (stereo partly drawn) (as salt: chloride) [16c, 1-((20S)-2α,3α-dihydroxy-6-oxo-5α-pregnane-20-methyl)pyrrolidin-1-ium chloride] | > 260 °C (dec.) | – | – | – | – | – | – | – | – | – | – | –
4 | C[C@H](CN1CCCCC1)[C@H]1CCC2C3CC(=O)[C@H]4C[C@H](O)[C@H](O)C[C@]4(C)C3CC[C@@]21C (stereo partly drawn) (as salt: chloride) [16d, 1-((20S)-2α,3α-dihydroxy-6-oxo-5α-pregnane-20-methyl)piperidin-1-ium chloride] | > 280 °C (dec.) | – | – | – | – | – | – | – | – | – | – | –
5 | C[C@H](CN1CCOCC1)[C@H]1CCC2C3CC(=O)[C@H]4C[C@H](O)[C@H](O)C[C@]4(C)C3CC[C@@]21C (stereo partly drawn) (as salt: chloride) [16e, 4-((20S)-2α,3α-dihydroxy-6-oxo-5α-pregnane-20-methyl)morpholin-4-ium chloride] | > 240 °C (dec.) | – | – | – | – | – | – | – | – | – | – | –
6 | C[C@H](C(=O)N(C)C)[C@H]1CC[C@H]2[C@@H]3CC(=O)[C@H]4C[C@H](O)[C@H](O)C[C@]4(C)[C@H]3CC[C@]12C [8a, N,N-dimethyl-(20S)-2α,3α-dihydroxy-6-oxo-5α-pregnane-20-carboxamide] | > 230 °C (dec.) | > 50 | > 50 | 16.12 | 18.41 | 16.46 | 13.329 | slight elongation of roots; also recorded: interesting growth-promoting activity | weak inhibition up to the highest tested concentration of 100 nM | > 50 | > 50 | –
7 | CCN(CC)C(=O)[C@@H](C)[C@H]1CC[C@H]2[C@@H]3CC(=O)[C@H]4C[C@H](O)[C@H](O)C[C@]4(C)[C@H]3CC[C@]12C [8b, N,N-diethyl-(20S)-2α,3α-dihydroxy-6-oxo-5α-pregnane-20-carboxamide] | > 200 °C (dec.) | > 50 | > 50 | 18.41 | 15.15 | 16.95 | 13.836 | slight elongation of roots; also recorded: interesting growth-promoting activity | – | > 50 | > 50 | –
8 | C[C@H](CN(C)C)[C@H]1CCC2C3CC(=O)[C@H]4C[C@H](O)[C@H](O)C[C@]4(C)C3CC[C@@]21C (stereo partly drawn) [16a, N,N-dimethyl-((20S)-2α,3α-dihydroxy-6-oxo-5α-pregnane-20-methyl)aminium chloride] | – | > 50 | > 50 | 18.91 | 15.64 | 15.32 | 13.626 | – | – | > 50 | > 50 | –
9 | CCN(CC)C[C@@H](C)[C@H]1CCC2C3CC(=O)[C@H]4C[C@H](O)[C@H](O)C[C@]4(C)C3CC[C@@]21C (stereo partly drawn) [16b, N,N-diethyl-((20S)-2α,3α-dihydroxy-6-oxo-5α-pregnane-20-methyl)aminium chloride] | – | > 50 | > 50 | 17.27 | 17.61 | 16.13 | – | – | – | > 50 | > 50 | –
10 | C[C@H](CN1CCCC1)[C@H]1CCC2C3CC(=O)[C@H]4C[C@H](O)[C@H](O)C[C@]4(C)C3CC[C@@]21C (stereo partly drawn) [16c, 1-((20S)-2α,3α-dihydroxy-6-oxo-5α-pregnane-20-methyl)pyrrolidin-1-ium chloride] | – | > 50 | > 50 | 15.97 | 14.99 | 15.16 | – | – | – | > 50 | > 50 | –
11 | C[C@H](CN1CCCCC1)[C@H]1CCC2C3CC(=O)[C@H]4C[C@H](O)[C@H](O)C[C@]4(C)C3CC[C@@]21C (stereo partly drawn) [16d, 1-((20S)-2α,3α-dihydroxy-6-oxo-5α-pregnane-20-methyl)piperidin-1-ium chloride] | – | > 50 | > 50 | 15.32 | 15.65 | 17.61 | – | – | – | > 50 | > 50 | –
12 | C[C@H](CN1CCOCC1)[C@H]1CCC2C3CC(=O)[C@H]4C[C@H](O)[C@H](O)C[C@]4(C)C3CC[C@@]21C (stereo partly drawn) [16e, 4-((20S)-2α,3α-dihydroxy-6-oxo-5α-pregnane-20-methyl)morpholin-4-ium chloride] | – | > 50 | > 50 | 17.21 | 17.61 | 16.13 | 13.771 | slight elongation of roots; also recorded: interesting growth-promoting activity | – | > 50 | > 50 | –
13 | CC(C)[C@@H](C)[C@@H](O)[C@H](O)[C@@H](C)[C@H]1CC[C@H]2[C@@H]3COC(=O)[C@H]4C[C@H](O)[C@H](O)C[C@]4(C)[C@H]3CC[C@]12C [24-epiBL, 24-epibrassinolide, reference compound] | – | – | – | 15.811 | 13.855 | 7.342 | 6.685 | – | – | – | – | ≥ 1
